Results on one compound are retold here after article PMC7904827 (Scientific Reports, 2021).

The nature of series [1]: ICRF-193 release from the prodrugs during incubation in DMEM (thermomixer, UHPLC-MS/MS). In kind it is in vitro ADME. The note with it: 100 µM, 37 °C. The protocol: All samples were spiked with the internal standards. DMEM or buffer (100 μL) was diluted with an ice-cold methanol/water mixture (20:80, v/v), mixed and analyzed. Plasma (50 μL) was precipitated with ice-cold methanol (1:5, v/v), mixed (20 s) and centrifuged (10 min, 10,000 rpm, 4 °C). NVCM pellets (4.8 × 10^6 cells) were precipitated with ice-cold methanol (250 μL), mixed (20 s), sonicated in a cold ultrasonic bath (75 s), mixed (30 s) and centrifuged (10 min, 10,000 rpm, 4 °C). The supernatants from the plasma and NVCM extractions were filtered (0.22 μm, PVDF) prior to analysis. For assay of the prodrugs, the samples were acidified with formic acid to a final concentration of 0.5%.
The samples were analyzed using two UHPLC instruments both coupled to a triple quadrupole mass spectrometer. […] Positive ionization mode was used in both methods. The analytical columns tested are characterized in the Supplementary materials.
The prodrugs (100 μM) were incubated (37 °C) in DMEM in a thermomixer (Thermomixer Comfort, Eppendorf, Germany) under gentle mixing (350 rpm) for 48 h.
(§1) From all of the above described experiments, samples were taken at predefined intervals, treated and immediately analyzed. All experiments were performed in four replicates, and the results are expressed as the mean ± SD.

Series [2] has as its system neonatal ventricular cardiomyocytes (NVCMs). The series can be described thus: Toxicity of the prodrugs alone in NVCMs (LDH release). It counts as cell-based, rat. How it is done: After 3 h, DAU solution (1.2 µM) was added to the media. After another 3 h, the medium was replaced with new (drug-free) exposure medium, and the cardiomyocytes were then kept until the end of the experiment. In addition to cytoprotective properties, the toxicity of the studied agent was also examined; this experiment was performed as described above with only the DAU addition step omitted.
Forty-five hours after the last medium exchange, a sample of medium was taken from each well to assess lactate dehydrogenase (LDH) activity[27]–[29]. For details, see the Supplementary material.
1.5 LDH activity evaluation
The control wells were treated with lysis buffer (0.1 M potassium phosphate, 1% Triton
X-100, 1 mM DTT, 2 mM EDTA; pH 7.8; 15 min; room temperature) to measure the total
cellular LDH level (sum of the activity in the control medium and the lysate). The activity of
LDH was assayed in Tris-HCl buffer (pH 8.9) containing 35 mM sodium lactate and 5 mM
NAD+. The rate of NAD+ reduction was monitored spectrophotometrically at 340 nm for 2 min.
The slope of the linear region and molar absorption coefficient e = 6.22*10 3 M/cm were used
to calculate the LDH activity, and the data were expressed as a percentage of total L DH activity. […]

Series [3] is described as follows: ICRF-193 release from GK-667 in rabbit plasma in vitro. It counts as in vitro ADME. As to conditions: GK-667 10 and 100 µM, 37 °C. How it is done: as §1
A short description of series [4]: In vivo pharmacokinetic study of GK-667 in rabbits, noncompartmental analysis. On the set-up: species or system rabbit. How it is done:
GK-667 was freshly dissolved in saline (5 mg/mL) before each administration. New Zealand White male rabbits (n = 6, ∼3.8 kg) received GK-667 (5 mg/kg) administered as a single slow (2 min) intravenous dose bolus to the ear marginal vein. Blood (∼1 mL) was sampled from veins on the contralateral ear at selected time points after drug administration (5 min to 9 h) into BD Vacutainers (BD Biosciences, Plymouth, UK) containing lithium heparin. Collected blood samples were immediately centrifuged (2 min, 3000 rpm, 4 °C), and plasma samples were harvested directly.
Plasma samples taken 0 to 20 min after GK-667 administration were immediately processed by the addition of formic acid and precipitation with ice-cold methanol. The supernatants were then analyzed for all analytes, including the intact prodrug. This was essential to ensure the appropriate determination of highly labile GK-667 at the first sampling intervals, and the whole procedure was validated for this purpose. […] Thus, all following plasma samples were immediately shock-frozen in liquid nitrogen and stored at -80 °C until analysis.
For drug administration and blood sampling, light anesthesia was induced in rabbits with a mixture of ketamine (25 mg/kg, i.m.) and midazolam (2.5 mg/kg, i.m.); sedation was then maintained with midazolam when needed. The blood withdrawn from the animals was compensated with an appropriate volume of sterile saline. All in vivo experiments and procedures were approved and supervised by the Animal Welfare Committee of the Faculty of Medicine in Hradec Kralove (Charles University), and the experiments were performed in compliance with the ARRIVE guidelines.
Standard noncompartmental analysis was performed using Kinetica software (version 4.0, Thermo Fisher Scientific Inc., USA). The population parameter estimation for nonlinear mixed effect models was conducted using Monolix version 2019R2 software (Antony, France: Lixoft SAS, 2019, http://lixoft.com/products/monolix/). The stochastic approximation expectation maximization (SAEM) algorithm coupled with Markov Chain Monte Carlo (MCMC) without the use of approximations (linearization) was used for the estimation of the likelihood. For evaluation of the goodness-of-fit, the following plots were assessed: observed versus individual predicted concentrations, weighted residuals versus time and weighted residuals versus predictions. Individual parameter values were obtained as empirical Bayes estimates. A visual predictive check with 1000 simulated data sets was performed.

Where a name gives a salt, the structure may show the parent alone. Bounds are passed on as bounds.

As a reminder, the Cmax is the peak of the concentration-time curve. As usually defined, the Tmax is the time at which the peak concentration occurs. Take `C[C@H]([C@H](C)N1CC(=O)N(COC(=O)CN)C(=O)C1)N1CC(=O)N(COC(=O)CN)C(=O)C1` [GK-667, meso-2,3-bis(4-(2-aminoacetoxymethyl)-3,5-dioxopiperazin-1-yl)butane tetrahydrochloride]: in series [1] (AUC0–3 h and AUC0–48 h, compared with the other prodrugs), the “conversion to the inactive metabolite ICRF-193met” value is recorded as “lowest conversion”. Further, in series [1] (GK-667 compared with GK-678), the “AUC0–3 h of ICRF-193 concentrations” value was “no statistically significant differences” and the “AUC0–48 h of ICRF-193 concentrations” value is “significantly higher”. In addition, the “cytotoxicity of the prodrug alone towards NVCMs” value in series [2] (LDH release, without DAU) is reported as “nontoxic on its own”. Also, the “LDH release, statistical significance compared to control” value in series [2] (prodrug alone 1–100 µM, NVCMs, n.s. or c in Fig. S2) was “n.s”. Further, the “metabolism of the prodrug in plasma” value in series [3] is “rapidly metabolized”. In series [4] (male, New Zealand White, rabbit, plasma, iv, 5 mg/kg, rabbits n = 6, GK-667 5 mg/kg i.v., NCA), this compound gave a Cmax of 2700 nM. Also, in series [4] (male, New Zealand White, rabbit, plasma, iv, rabbits n = 6, GK-667 5 mg/kg i.v., NCA, read-out: Tmax (converted)), the time of peak concentration (Tmax) is 5 min. Besides, the concentration at 5 min in series [4] (male, New Zealand White, rabbit, plasma, iv, rabbits, GK-667 5 mg/kg i.v., 5th min, read-out: mean plasma concentration of the prodrug) amounted to 2700 nM. For the same compound, the concentration at 10 min in series [4] (male, New Zealand White, rabbit, plasma, iv, rabbits, GK-667 5 mg/kg i.v., 10th min, read-out: mean plasma concentration of the prodrug) is 400 nM. The concentration at 20 min in series [4] (male, New Zealand White, rabbit, plasma, iv, rabbits, GK-667 5 mg/kg i.v., 20 min, in all but one animal, read-out: plasma concentration of the prodrug (below LLOQ)) is below 100 nM. Further, the “time to essentially complete clearance of the parent compound from plasma” value in series [4] (rabbits, after injection of GK-667) is listed as at most 10 min.
